Laboratory results reported in PMC5537225, “Therapeutic efficacy of a respiratory syncytial virus fusion inhibitor” (Nature Communications, 2017).
Like-named read-outs stand apart in the source and are kept apart here.

Experiments:
[1] = tested on: rgRSV224; assay: microbe, parasite or virus in culture; assay type: cell-based, respiratory syncytial virus; conditions: for EC50: human respiratory syncytial virus, HeLa
[2] = tested on: rgRSV224 L141W mutant strain; assay type: cell-based, respiratory syncytial virus; conditions: mutant selected with JNJ-53718678
[3] = tested on: rgRSV224 D489Y mutant strain; assay type: cell-based, respiratory syncytial virus
[4] = target: T1, prefusion-stabilized RSV F protein (DS-Cav1) (Human respiratory syncytial virus A, UniProt P03420, I379V/M447V/S155C/S190F/S290C/V207L); assay: biochemical; assay type: binding; conditions: ITC
T1 construct: purification tags incl; made in house; host or cells: FreeStyle 293 F cells, with kifunensine
T1 sequence (P03420 137-513, looked up, stated change not applied): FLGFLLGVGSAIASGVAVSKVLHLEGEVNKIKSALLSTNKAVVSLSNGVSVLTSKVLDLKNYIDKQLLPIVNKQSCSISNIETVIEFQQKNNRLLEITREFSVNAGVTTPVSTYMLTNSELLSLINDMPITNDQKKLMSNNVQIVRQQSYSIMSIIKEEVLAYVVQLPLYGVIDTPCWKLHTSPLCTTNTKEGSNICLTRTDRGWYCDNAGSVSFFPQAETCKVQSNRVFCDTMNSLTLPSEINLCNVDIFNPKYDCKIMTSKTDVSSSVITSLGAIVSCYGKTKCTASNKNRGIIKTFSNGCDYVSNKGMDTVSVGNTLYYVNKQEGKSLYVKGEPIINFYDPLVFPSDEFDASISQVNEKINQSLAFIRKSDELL
T1 sequence (P03420 26-109, stated change not applied): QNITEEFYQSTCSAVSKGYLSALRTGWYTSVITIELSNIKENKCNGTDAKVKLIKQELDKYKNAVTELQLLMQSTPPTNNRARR

[5] = tested on: post-fusion RSV F; assay type: binding; conditions: ITC
[6] = target: T2, prefusion L141W mutant RSV F (DS-Cav1) (Human respiratory syncytial virus A, UniProt P03420, I379V/L141W/M447V/S155C/S190F/S290C/V207L); assay type: binding; conditions: ITC; 1:1 fits could not be determined
T2 construct: purification tags incl; made in house; host or cells: FreeStyle 293 F cells, with kifunensine
T2 sequence (P03420 137-513, looked up, stated change not applied): as the sequence (P03420 137-513, looked up, stated change not applied) above
T2 sequence (P03420 26-109, stated change not applied): as the sequence (P03420 26-109, stated change not applied) above

[7] = target: T3, prefusion D489Y mutant RSV F (DS-Cav1) (Human respiratory syncytial virus A, UniProt P03420, D489Y/I379V/M447V/S155C/S190F/S290C/V207L); assay type: binding; conditions: ITC; 1:1 fits could not be determined
T3 construct: purification tags incl; made in house; host or cells: FreeStyle 293 F cells, with kifunensine
T3 sequence (P03420 26-109, stated change not applied): as above
T3 sequence (P03420 137-513, looked up, stated change not applied): as the sequence (P03420 137-513, looked up, stated change not applied) above

[8] = target: T4, full-length wild-type RSV F protein (Human respiratory syncytial virus A, UniProt P03420); assay: Membrane-bound F protein stability assay (heat-shock flow cytometry, HEK293T cells); assay type: cell-based; conditions: 55 °C for 10 min
T4 construct: The full-length wild-type RSV F protein was transiently expressed in HEK293T cells; expressed in transfected cells; host or cells: HEK293T
T4 sequence (P03420 26-109): as the sequence (P03420 26-109, stated change not applied) above
T4 sequence (P03420 137-574): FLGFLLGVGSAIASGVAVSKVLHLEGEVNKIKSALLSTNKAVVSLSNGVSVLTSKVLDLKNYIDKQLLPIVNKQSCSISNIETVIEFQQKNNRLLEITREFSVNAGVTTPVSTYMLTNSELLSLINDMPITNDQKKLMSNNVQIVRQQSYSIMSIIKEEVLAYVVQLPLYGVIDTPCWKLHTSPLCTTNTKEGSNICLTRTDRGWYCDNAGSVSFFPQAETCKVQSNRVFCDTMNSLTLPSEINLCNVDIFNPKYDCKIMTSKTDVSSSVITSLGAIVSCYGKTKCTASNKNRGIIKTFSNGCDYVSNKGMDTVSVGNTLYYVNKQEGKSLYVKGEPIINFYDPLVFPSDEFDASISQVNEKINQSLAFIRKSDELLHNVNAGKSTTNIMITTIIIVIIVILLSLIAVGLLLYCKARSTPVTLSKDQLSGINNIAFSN
Description: The full-length wild-type RSV F protein was transiently expressed in HEK293T cells. Forty-eight hours post transfection, the cells were detached using an EDTA-containing buffer and the cell suspension with or without added compounds was heat-shocked for 10 min at 55 °C. The cells were stained with the CR9501 and CR9503 antibodies (1 µg ml^−1) directly labeled with AlexaFluor647 (Alexa Fluor® 647 Monoclonal Antibody Labeling Kit, Molecular Probes/Invitrogen). Propidium iodide (Molecular Probes/Invitrogen) was used as a live-dead stain. Flow Cytometry was performed on FACS Canto II instrument (BD Biosciences). The data were analyzed using FlowJo9.6.1 software. A single cell population was selected on the side and forward scatters dot-plot. Within this population, PI-negative cells were analyzed for staining with CR9501 and CR9503 antibodies. Mean fluorescence intensity was calculated and the values of the heat-shocked samples were normalized to untreated (37 °C) samples.

[9] = tested on: recombinant hMPV; assay: microbe, parasite or virus in culture; assay type: cell-based; conditions: human metapneumovirus, Vero/TMPRSS2; mean of at least 3 experiments
[10] = tested on: recombinant PIV-3 strain; assay: microbe, parasite or virus in culture; assay type: cell-based, human parainfluenza virus 3; conditions: Human respirovirus 3, Vero; mean of at least 3 experiments
[11] = tested on: CVB; assay: CVB assay in Vero Bayer cells; assay type: cell-based, Coxsackie virus B4; conditions: Enterovirus B, mean of at least 3 experiments
[12] = tested on: HIV-1 IIIB virus; assay: HIV-1 assay in MT4-LTR-Luc cells; assay type: cell-based; conditions: Human immunodeficiency virus 1, IIIB; mean of at least 3 experiments
Description: (§1) Briefly, white 384-well plates were filled in quadruplicate using a customized robot system with serial fourfold dilutions of compound in a final volume of 10 µl culture medium. Then, 15 µl of a MT4-LTR-Luc cell suspension (4 × 10^5 cells per ml) in culture medium was added to each well followed by the addition of 15 µl HIV IIIB virus (MOI = 0.0125) in culture medium using a multidrop dispenser. […] The CC50 value was calculated on the basis of the difference of luminescence between non-treated and compound-treated cells.

[13] = Cytotoxicity in non-infected MT4-LTR-Luc cells; assay type: cell-based; conditions: human, mean of at least 3 experiments, read-out: CC50 (HIV-1 row)
Description: as §1

[14] = tested on: HCV genotype 1b subgenomic replicon; assay: microbe, parasite or virus in culture; assay type: cell-based; conditions: Hepatitis C virus; mean of at least 3 experiments
[15] = tested on: DENV-2; assay: microbe, parasite or virus in culture; assay type: cell-based; conditions: Dengue virus, read-out: EC50 DENV
[16] = tested on: CMV-AD169-eGFP virus; assay: microbe, parasite or virus in culture; assay type: cell-based, cytomegalovirus; conditions: Human betaherpesvirus 5, AD169, HEL 299; mean of at least 3 experiments
[17] = tested on: L141W mutant RSV; assay type: cell-based, respiratory syncytial virus; conditions: A549 cells, time-lapse imaging 48 h
[18] = tested on: D489Y mutant RSV; assay type: cell-based, respiratory syncytial virus; conditions: A549 cells, time-lapse imaging 48 h
[19] = tested on: Long strain RSV; assay: In vivo efficacy in RSV-infected cotton rats; set-up: species or system Sigmodon hispidus cotton rats
[20] = tested on: RSV A2; assay: Viral titer in RSV-inoculated BALB/c mice; assay type: in vivo; conditions: single 40 mg kg−1 dose 1 h before infection
[21] = tested on: RSV-induced pro-inflammatory cytokines and chemokines; assay: Cytokine and chemokine analysis in RSV-infected BALB/c mice; assay type: in vivo; conditions: single 40 mg kg−1 p.o. 1 h before infection, Day 6, mean ± s.e.m., n=6
[22] = tested on: RSV-induced cellular influx in the lungs; assay: Measurement of cellular influx into the lungs of RSV-infected BALB/c mice; assay type: in vivo
[23] = tested on: RSV M37 strain; assay: In vivo efficacy in RSV-infected neonatal lambs
[24] = tested on: soluble prefusion ectodomain of F protein; conditions: DSF
[25] = tested on: HeLa RH cells; conditions: human, 3 days
Description: (§2) After 3 days of incubation at 33 °C, cytopathic effect (CPE) was quantified by measuring the ATP content in compound-treated and non-treated cells with ATPlite kit according to the manufacturer’s instructions. Cytotoxicity of the compound was determined in a parallel set of plates mock-infected with cell culture medium. After 3 days of incubation at 33 °C, ATP content in compound-treated and non-treated cells was quantified with ATPlite kit.

[26] = dog
[27] = in vivo; conditions: 10 mg/kg
[28] = in vivo; conditions: male, Beagle, dog
[29] = in vitro; conditions: African green monkey
[30] = in vitro; conditions: African green monkey; remark: listed apart in the source
Description: Briefly, black 384-well clear-bottom microtiter plates were filled in quadruplicate using a customized robot system with serial fourfold dilutions of compound in a final volume of 200 nl DMSO. Then, 20 µl of a Vero Bayer cell suspension (3.75 × 10^4 cells/ml) in culture medium was added to each well followed by the addition of 20 µl PIV-3-eGFP virus (MOI = 1) in culture medium, or 20 µl culture medium for cell controls, using a multidrop dispenser.

[31] = in vitro; conditions: African green monkey; remark: listed apart in the source
[32] = in vitro; conditions: human
[33] = in vitro; conditions: human; remark: listed apart in the source
Description: Briefly, 96-well plates were filled with 100 µl/well of HepG2.117 cells (2 × 10^4 cells per well) and incubated overnight at 37 °C in a humidified atmosphere containing 5% CO2.

[34] = tested on: recombinant MV; assay: MV assay in Vero/hSLAM cells; conditions: Measles morbillivirus, Vero, read-out: EC50 MV
[35] = tested on: HRV 16; assay: HRV assay (CPE, HeLa RH cells), HRV 16; conditions: Rhinovirus A, read-out: EC50 HRV 16
Description: as §2

[36] = tested on: HRV 1b; assay: HRV assay (CPE, HeLa RH cells), HRV 1b; conditions: Rhinovirus A, read-out: EC50 HRV 1b
Description: as §2

[37] = tested on: RSV A and B strains; conditions: HeLa cells
Description: Briefly, black 384-well clear-bottom microtiter plates were filled in quadruplicate using a customized robot system with serial fourfold dilutions of compound in a final volume of 200 nl dimethylsulfoxide (DMSO). Then, 20 µl of a HeLa cell suspension (5 × 10^4 cells ml^−1) in culture medium was added to each well followed by the addition of 20 µl RSV (multiplicity of infection, MOI = 0.02) in culture medium, or 20 µl culture medium for cell controls, using a multidrop dispenser. […] In parallel, compounds were incubated for 3 days in a set of white 384-well microtiter plates and the cytotoxicity of compounds in HeLa cells (CC50) was determined by measuring the adenosine triphosphate (ATP) content of the cells using the ATPlite kit (PerkinElmer, Waltham, MA) according to the manufacturer’s instructions. The activity of the compound against non-recombinant RSV A and B strains was determined similarly by plaque assay[70].

[38] = tested on: rgRSV224 in human bronchoepithelial cells (HBECs); assay: Antiviral potency in air-liquid cultures of HBECs infected with rgRSV224
[39] = target: prefusion-stabilized RSV F protein (DS-Cav1) (respiratory syncytial virus strain A2); assay: crystal structure
[40] = mock-treated rgRSV224 during in vitro selection procedure, read-out: EC50 wild-type strain (untreated control)
[41] = RSV-infected, single 40 mg kg−1 p.o., BAL, mean ± s.e.m., n=6
[42] = 25 mg kg−1 daily starting 1 day after infection
[43] = HBECs, 100 nM, 6 or 24 h after onset of infection

In the case of `Cc1cn2nc([C@@H]3CCCCN3C(=O)c3cc(Cl)ccc3NS(C)(=O)=O)cc2nc1N1CC[C@H](N)C1` [GS-5806, reference compound], the EC50 [1, 40] is reported as 1e-10 M, the EC50 ([1]; read-out: EC50 parent strain (rgRSV224)) is reported as 1e-10 M and the “FC (fold change over wild-type strain) mutant strain L141W” value [2] is reported as 379. For the same molecule, the “FC (fold change over wild-type strain) mutant strain D489Y” value ([3]; mutant selected with JNJ-53718678) was > 50,000.

With `CS(=O)(=O)CCCn1c(Cn2c(=O)n(CC(F)(F)F)c3ccncc32)cc2cc(Cl)ccc21` [JNJ-53718678] the binding stoichiometry [4] was “one inhibitor per trimer”, the Kd ([4]; read-out: equilibrium dissociation constant (KD)) was 0.0074 µM and the “binding to post-fusion RSV F” value [5] was “did not bind”. For the same molecule, the “effect of L141W mutation on binding affinity to prefusion F” value [6] was “dramatic reduction”, the “effect of D489Y mutation on binding affinity to prefusion F” value [7] was “dramatic reduction” and the “fraction of prefusion F on the surface of the cells after heat shock” value [8] was “concentration-dependent increase”. The “improvement of activity as compared to BMS-433771” value [1] was > 10 fold, the EC50 [1, 40] was 1.6e-09 M and the EC50 ([1]; pEC50 = -Log10(EC50)(M), preliminary SAR, read-out: pEC50 (converted)) was 5.01e-10 M. The EC50 [9] was 73 µM, the EC50 [10] was 26.3 µM and the EC50 [11] was 3.73 µM. It also gave an EC50 [12] of 13.5 µM, a CC50 at 2 days [13] of 21.6 µM and an EC50 [14] of 24.3 µM. For the same molecule, the EC50 [15] was 17.7 µM, the EC50 [16] was 17.4 µM and the EC50 ([3]; rgRSV224 carrying a D489Y resistance mutation in F, read-out: EC50 (mutant RSV)) was 4.1 µM. The “concentration required for inhibition of the infection rate, L141W mutant RSV” value [17] was 100 nM, the “concentration required for inhibition of the infection rate, D489Y mutant RSV” value [18] was 10 µM and the “decrease of the RSV titer in both BALF and lavaged-lung tissue” value ([19]; 40 mg kg−1 once daily from 24 h until Day 3 post-inoculation) was 1.5 log10. The “decrease of RSV titer in lungs vs vehicle group” value ([19]; single oral prophylactic dose 100 mg kg−1, 1 h before infection, on average) was 100 fold, the “reduction of the viral titer” value ([19]; single-dose therapeutic treatment 40 mg kg−1, 24 h after infection) was “moderate reduction” and the “viral titer in BALF and lavaged lung” value [20] was “significant decrease”. For the same molecule, the “CCL2 mean concentration in BALF” value [21] was 118 ± 17 pg/mL, the “CCL3 mean concentration in BALF” value [21] was 77 ± 11 pg/mL and the “CCL5 mean concentration in BALF” value [21] was 111 ± 13 pg/mL. The “CXCL1 mean concentration in BALF” value [21] was 145 ± 23 pg/mL, the “CXCL9 mean concentration in BALF” value [21] was 1,878 ± 135 pg/mL and the “CXCL10 mean concentration in BALF” value [21] was 2,265 ± 332 pg/mL. For the same molecule, the “IFN mean concentration in BALF” value [21] was 465 ± 109 pg/mL, the “IL-1 mean concentration in BALF” value [21] was 171 ± 8 pg/mL and the “IL-6 mean concentration in BALF” value [21] was 29 ± 5 pg/mL. The “IL-12p40 mean concentration in BALF” value [21] was 0.7 ± 0.4 pg/mL, the “IL-17 mean concentration in BALF” value [21] was 3.2 ± 0.3 pg/mL and the “reduction of influx of neutrophils” value ([22]; BALB/c mice, single 40 mg kg−1 dose 1 h before infection) was ~ 5.5 fold. For the same molecule, the “CD4+ T cells, mean cell number” value [22, 41] was 986 ± 113, the “CD8+ T cells, mean cell number” value [22, 41] was 2,757 ± 447 and the “Monocytes (CD115+ infiltrating into the lung), mean cell number” value [22, 41] was 33 ± 9. The “NK cells, mean cell number” value [22, 41] was 1,059 ± 130, the “Neutrophils, mean cell number” value [22, 41] was 160 ± 40 and the “T cells, mean cell number” value [22, 41] was 2,869 ± 671. For the same molecule, the “reduction of the viral RNA titer in BALF and lavaged-lung tissue vs vehicle” value [23, 42] was > 95%, the “reduction of the viral RNA titer in BALF vs vehicle” value [23, 42] was ~ 22 fold and the “reduction of the viral RNA titer in lavaged-lung tissue vs vehicle” value [23, 42] was ~43 fold. The microscopic lung lesions ([23]; 25 mg kg−1 initiated 1 day after infection) was “lacked microscopic lesions”, the “formation of gross RSV-associated lung lesions” value ([23]; once daily starting 1 day after infection) was “complete inhibition” and the “RSV infectious titer in BALF and lavaged-lung tissue” value ([23]; oral once daily 1, 5 or 25 mg kg−1 starting 1 day after infection, Day 6) was “(almost) complete eradication”. The “melting temperature (Tm) of soluble prefusion F ectodomain” value [24] was “concentration-dependent increase”, the CC50 [25] was > 100 µM and the F ([26]; PO 5 mg kg−1 vs IV 1 mg kg−1) was 89%. The “CLp as fraction of LBF” value ([26]; male, Beagle, in vivo, iv, 1 mg/kg) was ~ 27 % LBF, the Cmax [27] was 254 ng/mL and the Tmax [27] was 1 h. The AUC(0-t) ([27]; AUC0-7 lung) was 2020 ng·h/mL, the AUC(0-t) ([27]; AUC0-7 plasma) was 680 ng·h/mL and the Vd ([28]; in vivo, iv, 1 mg/kg) was 2.8 L/kg. The AUC(0-inf) ([28]; in vivo, po, 5 mg/kg) was 9690 ng·h/mL, the Cmax ([28]; in vivo, po, 5 mg/kg) was 1120 ng/mL and the Tmax ([28]; in vivo, po, 5 mg/kg) was 1.7 h. For the same molecule, the half-life ([28]; plasma) was 4.1 h, the clearance ([28]; plasma, iv, 1 mg/kg) was 9 mL/min/kg and the CC50 at 3 days [29] was > 25 µM. For the same molecule, the CC50 [30] was > 100 µM, the CC50 at 2 days [30] was > 100 µM and the CC50 at 3 days [31] was > 25 µM. For the same molecule, the CC50 at 5 days [32] was > 100 µM, the CC50 at 4 days [33] was > 100 µM and the EC50 [34] was > 100 µM. The EC50 [35] was > 100 µM, the EC50 [36] was > 100 µM and the “activity against RSV strains from both A and B subtypes” value [37] was “highly active”. The “reduction of viral replication vs non-treated cells” value [38, 43] was ~ 1.3 log10, the “reduction of viral titer vs non-treated cells” value [38, 43] was ~ 1.3 log10 and the EC50 ([38]; human respiratory syncytial virus, read-out: calculated EC50) was 0.0012 µM.

Molecule “prefusion-stabilized RSV F protein (DS-Cav1) (domain or fragment)” has a stoichiometry N [39] of 3.
